According to ChEMBL document CHEMBL1201862, “PubChem BioAssay data set” (2004):
Activity calls are given as the source filed them.

Experiments:
[1] = A Cell Based Secondary Assay To Explore Cytotoxicity of Compounds that Sensitize Mycobacterium Tuberculosis to Beta-Lactam Antibiotics.; format: functional
[2] = blockers of HIV-1 envelope-mediated cell-cell fusion – cherry-pick, dose response (AID 652057); format: functional, cell-based
[3] = off-target signal loss in HeLa-CEM21 co-culture – HeLa F-luc CTL cells, cherry-picked, counter-screen for HIV-1 Env fusion inhibitor project, dose response (AID 652040); format: functional, cell-based;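 also: potency for signal decrease marking cytotoxic or nonspecific inhibition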
[4] = viability of uninfected HEp-2 cells – cell-based, HTS, cytotoxicity control for RSV inhibitor project, dose response (AID 2410); format: functional; settings: human respiratory syncytial virus
[5] = Luminescence Cell-Based Dose Retest to Confirm Inhibitors of Cancer Stem Cells. [Related pubchem assays (depositor defined):AID2717, AID2721]; format: functional; settings: Homo sapiens
[6] = target: T1, Ubiquitin-conjugating enzyme E2 N (Homo sapiens, UniProt P61088); format: functional
T1 sequence (P61088 whole entry): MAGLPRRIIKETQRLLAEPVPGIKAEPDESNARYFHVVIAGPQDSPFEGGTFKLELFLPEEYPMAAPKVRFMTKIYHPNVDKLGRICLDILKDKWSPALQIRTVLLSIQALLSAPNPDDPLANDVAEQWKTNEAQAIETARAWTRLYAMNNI

[7] = target: Neurotensin receptor type 1 (Homo sapiens, UniProt P30989); format: functional;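 also: Image-based confirmatory dose-response assay measuring agonist activity at NTR1; NTR1-expressing U2OS osteosarcoma cells imaged for beta-arrestin GFP spot formation; agonist potency where compounds increase beta-arrestin recruitment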
Sequence of Neurotensin receptor type 1 (P30989 whole entry): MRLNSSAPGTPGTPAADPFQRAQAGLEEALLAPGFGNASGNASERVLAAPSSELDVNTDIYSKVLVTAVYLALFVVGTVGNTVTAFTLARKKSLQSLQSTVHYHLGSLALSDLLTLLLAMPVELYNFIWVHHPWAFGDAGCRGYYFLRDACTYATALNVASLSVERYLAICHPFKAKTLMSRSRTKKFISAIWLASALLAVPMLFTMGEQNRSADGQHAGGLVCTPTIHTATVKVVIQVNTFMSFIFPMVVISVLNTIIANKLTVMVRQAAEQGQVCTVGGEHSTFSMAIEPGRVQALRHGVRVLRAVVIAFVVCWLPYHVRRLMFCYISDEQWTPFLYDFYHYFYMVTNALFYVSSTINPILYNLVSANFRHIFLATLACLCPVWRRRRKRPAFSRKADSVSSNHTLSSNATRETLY

[8] = target: T2, Long-chain-fatty-acid--AMP ligase FadD28 (Mycobacterium tuberculosis, UniProt P9WQ59); test: Fluorescence polarization aasay to screen for inhibitors that compete for the binding of FadD28 to a bisubstrate Measured in Biochemical System Using Plate Reader - 2147-01_Inhibitor_Dose_CherryPick_Activity.; format: functional, Mycobacterium tuberculosis H37Rv
T2 sequence (P9WQ59 whole entry): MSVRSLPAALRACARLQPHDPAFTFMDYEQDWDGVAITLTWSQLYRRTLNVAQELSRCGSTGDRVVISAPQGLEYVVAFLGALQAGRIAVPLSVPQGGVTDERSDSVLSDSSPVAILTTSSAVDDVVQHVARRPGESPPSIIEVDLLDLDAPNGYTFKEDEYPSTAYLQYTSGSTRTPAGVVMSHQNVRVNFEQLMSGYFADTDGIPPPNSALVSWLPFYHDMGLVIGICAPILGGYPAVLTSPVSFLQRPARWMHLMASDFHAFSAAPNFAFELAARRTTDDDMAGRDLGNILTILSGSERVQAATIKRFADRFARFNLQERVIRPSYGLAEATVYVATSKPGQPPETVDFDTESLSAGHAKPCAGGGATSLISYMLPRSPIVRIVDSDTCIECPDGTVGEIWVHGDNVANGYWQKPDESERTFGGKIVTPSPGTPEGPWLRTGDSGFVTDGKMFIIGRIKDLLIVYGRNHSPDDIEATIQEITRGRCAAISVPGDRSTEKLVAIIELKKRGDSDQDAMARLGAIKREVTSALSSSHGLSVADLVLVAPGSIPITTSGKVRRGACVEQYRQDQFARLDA

Prothrombin = Prothrombin (Homo sapiens, UniProt P00734); test: Thrombin 1536 HTS Dose Response Confirmation. [Related pubchem assays: 1046 (Thrombin 1536 HTS; hits were confirmed in this assay)]; format: functional
[9] = HEK-293T cell viability reduction – luminescence, B-cell screen hits, cytotoxicity control for BCR NF-kB inhibitor project, dose response (AID 489021); format: functional, cell-based;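 also: HEK-293T cells carrying an NF-kB luciferase reporter; cells exposed to compound for about 14 hours before viability readout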
Bcl-2-related protein A1 = target: T3, Bcl-2-related protein A1 (Mus musculus, UniProt Q07440); format: functional;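 also: confirmatory dose–response counterscreen on Bfl-1, used to check hits from a UBC13 polyubiquitin inhibitor campaign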
T3 sequence (Q07440 whole entry): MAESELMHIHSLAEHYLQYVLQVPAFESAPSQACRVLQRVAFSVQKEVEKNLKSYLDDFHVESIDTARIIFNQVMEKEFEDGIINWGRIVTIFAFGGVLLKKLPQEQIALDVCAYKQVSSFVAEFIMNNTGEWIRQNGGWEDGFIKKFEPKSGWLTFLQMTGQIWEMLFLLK

[10] = target: T1, Ubiquitin-conjugating enzyme E2 N; format: functional; remark: listed apart in the source
[11] = target: T4, DNA repair protein RAD52 homolog (Homo sapiens, UniProt P43351); format: functional, biochemical
T4 sequence (P43351 whole entry): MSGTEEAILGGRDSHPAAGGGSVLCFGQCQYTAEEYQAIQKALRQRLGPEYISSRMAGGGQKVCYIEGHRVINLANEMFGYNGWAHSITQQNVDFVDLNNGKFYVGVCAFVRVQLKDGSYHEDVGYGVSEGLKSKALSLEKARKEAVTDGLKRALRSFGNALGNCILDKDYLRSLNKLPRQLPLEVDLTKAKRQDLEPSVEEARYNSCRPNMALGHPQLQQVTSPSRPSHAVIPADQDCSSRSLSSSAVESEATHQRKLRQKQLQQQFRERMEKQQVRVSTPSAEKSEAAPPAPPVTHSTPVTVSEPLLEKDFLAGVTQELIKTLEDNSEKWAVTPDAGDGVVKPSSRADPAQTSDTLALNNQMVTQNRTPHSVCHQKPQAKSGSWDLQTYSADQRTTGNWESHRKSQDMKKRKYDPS

[12] = target: T5, Heat shock factor protein 1 (Mus musculus, UniProt P38532); test: enhancement of HSF1-driven luciferase signal – cell-based, NIH3T3, luminescence, dose retest, confirmation (AID 435004); format: functional;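 also: stress induced by proteasome inhibitor MG132 added 30 min after compound; luciferase reporter driven by HSF1 response element in NIH3T3 cells; actives raise luminescence as potentiators of the MG132 stress response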
T5 sequence (P38532 whole entry): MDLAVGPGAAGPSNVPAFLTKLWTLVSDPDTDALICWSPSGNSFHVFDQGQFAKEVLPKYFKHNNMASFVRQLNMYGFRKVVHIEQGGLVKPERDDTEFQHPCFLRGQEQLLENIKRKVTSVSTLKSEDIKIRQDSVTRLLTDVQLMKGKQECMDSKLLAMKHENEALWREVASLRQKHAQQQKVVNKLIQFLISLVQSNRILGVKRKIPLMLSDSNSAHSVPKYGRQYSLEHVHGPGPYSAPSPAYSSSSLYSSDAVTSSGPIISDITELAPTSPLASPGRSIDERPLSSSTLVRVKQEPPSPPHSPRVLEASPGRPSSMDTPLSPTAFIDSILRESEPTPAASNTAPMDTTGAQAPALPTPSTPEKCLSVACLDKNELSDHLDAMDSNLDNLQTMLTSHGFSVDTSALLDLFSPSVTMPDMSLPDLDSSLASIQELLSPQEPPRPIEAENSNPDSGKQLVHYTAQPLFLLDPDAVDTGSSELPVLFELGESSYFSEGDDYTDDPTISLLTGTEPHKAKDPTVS

Aminopeptidase N = target: T6, Aminopeptidase N (Plasmodium falciparum FcB1/Columbia, UniProt O96935); test: malaria alanyl aminopeptidase activity blockers – biochemical, fluorogenic H-Leu-NHMec substrate, 1536-well (AID 1445); design: species or system Plasmodium falciparum 3D7, 3D7
T6 sequence (O96935 whole entry): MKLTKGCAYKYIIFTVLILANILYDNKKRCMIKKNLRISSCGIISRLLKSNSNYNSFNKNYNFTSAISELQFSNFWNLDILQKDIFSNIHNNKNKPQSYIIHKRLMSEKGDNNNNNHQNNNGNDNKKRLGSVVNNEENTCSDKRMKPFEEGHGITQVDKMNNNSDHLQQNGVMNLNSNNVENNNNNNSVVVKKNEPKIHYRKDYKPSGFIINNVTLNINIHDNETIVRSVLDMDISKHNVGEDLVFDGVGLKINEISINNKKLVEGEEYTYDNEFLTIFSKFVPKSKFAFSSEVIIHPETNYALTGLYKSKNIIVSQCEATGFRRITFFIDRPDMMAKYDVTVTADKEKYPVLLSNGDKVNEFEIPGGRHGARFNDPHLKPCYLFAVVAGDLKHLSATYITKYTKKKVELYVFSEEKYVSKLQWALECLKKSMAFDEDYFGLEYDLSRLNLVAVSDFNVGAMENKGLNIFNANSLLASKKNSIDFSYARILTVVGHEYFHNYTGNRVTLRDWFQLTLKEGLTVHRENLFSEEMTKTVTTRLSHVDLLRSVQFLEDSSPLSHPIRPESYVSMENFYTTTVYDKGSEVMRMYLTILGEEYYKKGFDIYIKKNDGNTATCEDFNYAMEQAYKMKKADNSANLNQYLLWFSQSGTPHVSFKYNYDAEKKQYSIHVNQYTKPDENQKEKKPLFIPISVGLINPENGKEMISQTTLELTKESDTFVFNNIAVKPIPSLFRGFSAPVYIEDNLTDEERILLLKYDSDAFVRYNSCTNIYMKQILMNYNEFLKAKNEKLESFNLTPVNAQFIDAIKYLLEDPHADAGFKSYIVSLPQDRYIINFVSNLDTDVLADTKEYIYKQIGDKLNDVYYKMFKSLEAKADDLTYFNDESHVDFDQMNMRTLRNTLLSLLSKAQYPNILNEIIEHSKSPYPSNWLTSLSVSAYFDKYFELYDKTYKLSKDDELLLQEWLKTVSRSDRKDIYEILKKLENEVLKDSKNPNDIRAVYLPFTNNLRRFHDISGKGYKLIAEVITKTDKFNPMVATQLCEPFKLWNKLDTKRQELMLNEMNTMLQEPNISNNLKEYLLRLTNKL

[13] = test system: Streptococcus sp. 'group A'; test: Streptococcus pyogenes SK(-)GAS viability under kanamycin – luminescence, BacTiterGlo, confirmation, counter-screen for streptokinase expression inhibitor project, dose response (AID 1900); format: functional, organism-based
Streptokinase A = target: T7, Streptokinase A (Streptococcus pyogenes serotype M1, UniProt P10520); test: viability-normalized secreted streptokinase activity reduction – plasminogen activation absorbance, OD405, dose response (AID 1914); format: functional, Streptococcus pyogenes M1 GAS;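 also: secreted streptokinase activity via plasminogen activation per viability signal from cell pellet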
T7 sequence (P10520 whole entry): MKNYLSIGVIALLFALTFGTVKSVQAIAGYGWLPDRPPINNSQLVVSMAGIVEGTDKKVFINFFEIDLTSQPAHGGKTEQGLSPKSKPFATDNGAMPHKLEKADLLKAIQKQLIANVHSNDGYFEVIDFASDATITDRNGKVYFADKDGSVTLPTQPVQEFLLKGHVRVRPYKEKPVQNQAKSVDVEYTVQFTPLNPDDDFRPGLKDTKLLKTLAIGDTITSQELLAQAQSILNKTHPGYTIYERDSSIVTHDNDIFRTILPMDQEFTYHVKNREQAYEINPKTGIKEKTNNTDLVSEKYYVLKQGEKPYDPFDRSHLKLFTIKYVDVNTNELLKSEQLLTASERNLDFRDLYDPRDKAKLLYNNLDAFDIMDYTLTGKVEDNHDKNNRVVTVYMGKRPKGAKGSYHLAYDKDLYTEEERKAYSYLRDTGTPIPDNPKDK

Streptococcus = test: GAS UMAA2166 growth inhibition – luminescence, BacTiterGlo, counter-screen for streptokinase expression inhibitor project, dose response (AID 1915); format: functional, organism-based;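 also: potency for reduction of bacterial viability or growth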

CS(=O)(=O)N(Cc1ccc(Cl)cc1)c1ccc(C(=O)NCCC2=CCCCC2)cc1
CC50 [1]: > 40 µM (active)
AC50 [2]: 1.92 µM (active)
AC50 [3]: 6.69 µM (active)

COc1ccccc1-n1c(C)cc(/C=C2/C(=N)N3C(=NC2=O)SN=C3S(C)(=O)=O)c1C
CC50 [4]: 19.8 µM (active)
IC50 (cells): 11.4 µM (active)

CCCCCc1cc(=O)oc2c(C(CCN3CCCCC3)c3ccc(OC)cc3)c(OC)cc(OC)c12 (centres undefined)
AC50 [5]: 6.49 µM (active)
IC50 [6]: > 20 µM (inactive)
EC50 [7]: 15.3 µM (active)

Cc1ccc(C2CC(=O)NC(SCC(=O)Nc3nccs3)=C2C#N)cc1 (centres undefined)
AC50 [8]: 51.5 µM (active)

CC1OC(O[C@H]2CC[C@]3(C)C4C=C[C@]56OC[C@@]7(CC[C@@H](C)[C@H](C)C75)[C@H](O)C[C@@]6(C)[C@]4(C)CC[C@H]3C2(C)C)C(OC2OC(CO)C(O)C(O)C2OC2OCC(O)C(O)C2O)C(O)C1O (some centres undefined)
IC50 (Prothrombin): > 50 µM (not active)

CCOC(=O)c1nn(-c2ccccc2)c(C#N)c1NC(=O)c1nn(CC)cc1Br
CC50 [1]: > 40 µM (active)
IC50 [9]: > 80 µM (inactive)

COC(=O)c1cc(C)nc2c(C)cc3[nH]c4ccccc4c3c12
CC50 [4]: 15 µM (active)
CC50 [1]: > 40 µM (active)

CN(C)CCCN(C(=O)c1ccc(C(=O)c2ccccc2)cc1)c1nc2cc3c(cc2s1)OCCO3
IC50 (Bcl-2-related protein A1): > 20 µM (inactive)
IC50 [6]: 7.1 µM (active)
IC50 [10]: 3.92 µM (active)
AC50 [11]: 14.7 µM (active)

Cc1c(NC(=O)CSc2nnc3c4ccccc4n(CCc4ccccc4)c3n2)c(=O)n(-c2ccccc2)n1C
CC50 [4]: 4.56 µM (active)
EC50 [12]: 24.1 µM (active)
IC50 (cells): 3.31 µM (active)

C#CCOCCOCCOCCNc1nc(N2CCN(C(=O)[C@H](CCCCN)n3cc([C@@H](N)CC(N)=O)nn3)CC2)nc(N2CCN(C(=O)[C@H](CCCCN)n3cc([C@@H](N)CC(N)=O)nn3)CC2)n1
IC50 (Bcl-2-related protein A1): > 20 µM (inactive)
IC50 [6]: 17.3 µM (active)
IC50 [10]: 12.5 µM (active)

Nc1[nH]cnc2nc(SCCN3CCCCC3)nc1-2
IC50 (Prothrombin): > 50 µM (not active)

C/C(=N\NC(=O)c1cccc(Cl)c1)C1C(=O)c2ccccc2C1=O
IC50 (Aminopeptidase N): 40.8 µM (active)
AC50 [5]: 10.7 µM (active)
AC50 [8]: 68.6 µM (active)

O=C(COC(=O)c1cc(Br)ccc1O)Nc1cc(S(=O)(=O)N2CCCC2)ccc1Cl
IC50 (Prothrombin): 7.17 µM (active)

O=C(Nc1ccc(Cl)c(Cl)c1)C1CC(=O)N(c2ccc(Br)cc2)C1 (centres undefined)
EC50 [13]: 5.25 µM (active)
EC50 (Streptokinase A): 20.1 µM (active)
IC50 (Prothrombin): > 50 µM (not active)
EC50 (Streptococcus): 11.9 µM (active)

Cc1cn([C@@H](CCCCNC(=O)OC(C)(C)C)C(=O)NCCCCCCCCCCC(=O)N2CCN(C(=O)OC(C)(C)C)CC2)nn1
CC50 [1]: 37.6 µM (active)
